Where “and” joins values, the source holds several entries; their conditions need not be identical. Equal entries are not always repeated.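 Growth conditions: 96-well plates. Treatment: test compound, 48 hours, 5 concentrations. Analysis: linear interpolation between bracketing concentrations; unreached endpoints set to highest concentration. GI50 marks 50% less growth. At the TGI there is no net growth.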
How the values were obtained:
Experiment in all cases: NCI-60 cell line screen, 48 h
MOLT-4 leukemia = test system: MOLT-4 leukemia
RXF 393 renal = test system: RXF 393 renal
MDA-N = test system: MDA-N
TK-10 renal = test system: TK-10 renal
SN12C renal = test system: SN12C renal
COLO 205 colon = test system: COLO 205 colon
UACC-257 melanoma = test system: UACC-257 melanoma
CAKI-1 renal = test system: CAKI-1 renal
SK-OV-3 ovarian = test system: SK-OV-3 ovarian
ACHN renal = test system: ACHN renal

SMILES	TGI (MOLT-4 leukemia) [µM]	TGI (RXF 393 renal) [µM]	TGI (MDA-N) [µM]	TGI (TK-10 renal) [µM]	TGI (SN12C renal) [µM]	TGI (COLO 205 colon)	TGI (UACC-257 melanoma) [µM]	TGI (CAKI-1 renal)	TGI (SK-OV-3 ovarian) [µM]	TGI (ACHN renal) [µM]	GI50 (MOLT-4 leukemia) [µM]	GI50 (RXF 393 renal) [µM]	GI50 (TK-10 renal) [µM]	GI50 (SN12C renal) [µM]	GI50 (COLO 205 colon) [µM]	GI50 (UACC-257 melanoma) [µM]	GI50 (CAKI-1 renal) [µM]	GI50 (SK-OV-3 ovarian) [µM]	GI50 (ACHN renal) [µM]
O=C(c1cccs1)N(C(=S)OC12CC3CC(CC(C3)C1)C2)c1ccccc1	> 100	> 100	> 100	> 100	89.8	33.8 µM	> 100	> 100 µM	> 100	> 100	–	–	–	–	–	–	–	–	–
COC(=O)c1sc(=S)sc1SCc1ccc(CSc2sc(=S)sc2C(=O)OC)cc1	> 100	> 100	> 100	> 100	> 100	> 100 µM	> 100	> 100 µM	> 100	> 100	–	–	–	–	–	–	–	–	–
CC1=CC(=O)c2ccccc2C1=O	5.15	26.9	2.37	34.1	25	31.8 µM	9.08	29.7 µM	25.7	13.1	–	–	–	–	–	–	–	–	–
O=C(C[n+]1ccc2ccccc2c1)c1ccc2ccc3ccccc3c2c1	2.69	16.3	10.8	8.74	14.7	3.87 µM	5.64	20.1 µM	21	14.8	–	–	–	–	–	–	–	–	–
COc1ccc(CC(=O)N2CCC3(C)CC(=O)CC=C23)cc1OC (configuration not stated)	> 100	> 100	> 100	–	> 100	> 100 µM	–	> 100 µM	> 100	> 100	–	–	–	–	–	–	–	–	–
CC12CC3OC(=O)C1COC14OC5(C2C1=O)C(O)(CCC1C4CC(O)C2(O)CC=CC(=O)C12C)C(=O)OC35C (configuration not stated)	> 100	–	> 100	> 100	> 100	> 100 µM	> 100	> 100 µM	> 100	> 100	–	–	–	–	–	–	–	–	–
CNc1ccc2c(c1)[C@@]1(C)c3ccccc3[C@@H](C2)N1C	47.6	50.8	74.7	86.2	33	–	60.6	> 100 µM	> 100	> 100	–	–	–	–	–	–	–	–	–
C=CCc1cccc2cc(C(=O)Nc3ccccc3)c(=N)oc12	> 100	> 100	> 100	–	> 100	> 100 µM	> 100	> 100 µM	> 100	> 100	–	–	–	–	–	–	–	–	–
COc1ccc(C(=O)/C=C/c2cccc([N+](=O)[O-])c2)c(OC)c1	3.88	2.36	–	> 50	2.99	> 50 µM	> 50	> 50 µM	> 50	–	1.17	1.13	1.59	1.18	6.85	> 50	1.98	18.9	–
COc1ccc2c(c1)[nH]c1c(/C=C/c3ccccc3)nccc12	> 100	38	37.2	39.7	30.2	19.9 µM	31.1	52 µM	34.9	28.4	–	–	–	–	–	–	–	–	–
CC1=NN(c2cccc(Cl)c2)C2(SCC(=O)N2c2nc3ccccc3s2)/C1=C\c1cccs1 (configuration not stated)	30.4	51.6	52.4	80.6	–	–	64	99 µM	–	> 100	–	–	–	–	–	–	–	–	–
CCn1c(-c2ccc(N=NNc3ccc(-c4n[nH]c(=S)n4CC)cc3)cc2)n[nH]c1=S	6.28	11.8	> 100	> 100	> 100	–	> 100	–	19.5	6.1	–	–	–	–	–	–	–	–	–
CC(=O)C1=C(C)N(c2ccc(C)cc2)C2(O)C=CC(=O)C3C(=O)N(c4ccccc4)C(=O)C132 (configuration not stated)	–	54.3	–	40.3	34.2	> 100 µM	36.5	45.4 µM	–	40.4	–	–	–	–	–	–	–	–	–
CNC(=O)OCc1c(CO)nc(SC)n1C	> 100	> 100	–	–	> 100	> 100 µM	> 100	> 100 µM	> 100	–	–	–	–	–	–	–	–	–	–
[N-]=[N+]=CC(=O)c1ccccc1C#CCCc1ccccc1	40.9	> 100	–	> 100	> 100	71.1 µM	94.7	–	66.7	68.8	–	–	–	–	–	–	–	–	–
NC(=O)c1cc2ccc(O)cc2oc1=Nc1ccccc1	88.8	> 100	> 100	> 100	66	44 µM	> 100	> 100 µM	> 100	> 100	–	–	–	–	–	–	–	–	–
CCC1CN(C(=O)c2ccccc2)C(Cc2c[nH]c3ccccc23)C(=O)C1CC(=O)OC (configuration not stated)	> 100	> 100	–	> 100	> 100	> 100 µM	> 100	> 100 µM	> 100	> 100	–	–	–	–	–	–	–	–	–
NCCCCc1cc(O)c2c(c1O)C(=O)c1ccccc1C2=O	10.1	27.9	28.6	34	23	10.4 µM	33.4	27.2 µM	29.1	25.4	–	–	–	–	–	–	–	–	–
CCCNC(=O)CCC(C)C1CCC2C3C(C[C@H](OC(C)=O)[C@]12C)[C@@]1(C)CCC2(C[C@H]1C[C@H]3OC(C)=O)OOC1(CC[C@]3(C)C4C[C@H](OC(C)=O)[C@]5(C)C(C(C)CCC(=O)NCCC)CCC5C4[C@H](OC(C)=O)C[C@@H]3C1)OO2 (some centres not stated)	> 100	> 87.1	> 100	> 100	> 100	> 100 µM	> 100	> 100 µM	> 100	> 82.2	–	–	–	–	–	–	–	–	–
C[C@H](NC(=O)c1ccc(CNC(=O)/C=C/c2cccc(Oc3ccccc3)c2)cc1)c1ccccc1	> 100	80.3	> 100	> 100	> 100	> 100 µM	> 100	59.5 µM	> 100	> 100	–	–	–	–	–	–	–	–	–
Nc1ccccc1S(=O)(=O)c1ccccc1	> 100	> 100	–	> 100	> 100	> 100 µM	> 100	–	> 100	> 100	–	–	–	–	–	–	–	–	–

SMILES	TGI (MOLT-4 leukemia) [µM]	TGI (RXF 393 renal) [µM]	TGI (MDA-N) [µM]	TGI (TK-10 renal) [µM]	TGI (SN12C renal) [µM]	TGI (COLO 205 colon)	TGI (UACC-257 melanoma) [µM]	TGI (CAKI-1 renal)	TGI (SK-OV-3 ovarian) [µM]	TGI (ACHN renal) [µM]	GI50 (MOLT-4 leukemia) [µM]	GI50 (RXF 393 renal) [µM]	GI50 (TK-10 renal) [µM]	GI50 (SN12C renal) [µM]	GI50 (COLO 205 colon) [µM]	GI50 (UACC-257 melanoma) [µM]	GI50 (CAKI-1 renal) [µM]	GI50 (SK-OV-3 ovarian) [µM]	GI50 (ACHN renal) [µM]
COc1cc2c(ccc3c4cc(OC)c(OC)cc4c[n+](C)c23)cc1O	19.2	> 75	–	–	22.1	> 75 µM	> 75	> 75 µM	> 72.2	–	–	–	–	–	–	–	–	–	–
COc1ccc(C(=O)c2sc(Nc3ccc(Cl)cc3)nc2N)cc1	> 71.4	> 54	> 22.2	33.4	> 62.8	> 100 µM	> 90.2	42.2 µM	27.2	> 87.7	–	–	–	–	–	–	–	–	–
CN(C)CC(CC1=C(CC(CN(C)C)N(C)C)CCC1)N(C)C (configuration not stated)	> 100	> 100	–	–	> 100	> 100 µM	> 100	> 100 µM	> 100	–	–	–	–	–	–	–	–	–	–
Nc1nc(SCCc2ccccc2)nc2nc3c(c(-c4ccccc4)c12)CCCC3	> 100	81.1	> 100	> 100	> 100	> 100 µM	> 100	> 100 µM	> 100	> 100	–	–	–	–	–	–	–	–	–
NC(=O)c1c(NC(=O)c2ccccn2)sc2c1CCC(=O)C2	> 100	> 100	–	> 100	–	–	–	–	> 100	> 100	> 100	3.53	5	–	–	–	–	> 100	2.62
O=C(O)C1C2CCC(O2)C1C(=O)Nc1cccc2cccnc12 (configuration not stated)	–	> 100	> 100	> 100	> 100	–	> 100	> 100 µM	> 100	> 100	–	–	–	–	–	–	–	–	–
CCN(CC(=O)O)C(=O)c1cccnc1	> 100	> 100	> 100	> 100	> 100	–	> 100	> 100 µM	–	> 100	–	–	–	–	–	–	–	–	–
CCOC(=O)C1=NN(c2ccc(C)cc2)C2=CC(C)=NN(C)C(=S)N21	> 100	30.1	> 100	> 100	> 100	> 100 µM	> 100	55.1 µM	> 100	> 100	–	–	–	–	–	–	–	–	–
CCOC(=O)C(NC(=O)c1ccco1)(Nc1nc2ccc(OCC)cc2s1)C(F)(F)F (configuration not stated)	> 100	30.9	60	> 100	> 100	46.4 µM	76.1	45.8 µM	> 100	82.3	–	–	–	–	–	–	–	–	–
Nc1cccc(/C=C/C(=O)N2CCN(CCOC(c3ccccc3)c3ccccc3)CC2)c1	21.2	28.7	35.9	28.3	33.9	33.1 µM	31.5	34.8 µM	32.7	31.6	–	–	–	–	–	–	–	–	–
COc1cccc([C@H]2C/C(=N\NC(=O)C(=O)N[C@@H](C)c3ccccc3)c3ccccc3N2)c1	–	> 100	–	> 100	0.0898	13.1 µM	> 100	54.1 µM	> 100	> 100	–	0.0303	–	–	–	–	–	–	–
COc1cc2c(cc1O)CC[C@@H]1[C@@H]2CC[C@]2(C)[C@@H](OCCN(C)C)CC[C@@H]12	–	–	–	2.81	4.05	1.17 µM	0.355	6.19 µM	2.11	–	–	–	0.932	0.803	0.521	0.138	1.45	0.356	–
COc1cccc2c1Cc1cc(-c3ccccc3)[n+](C)n1-2	> 100	73.6	26	> 100	61.7	7.46 µM	14.4	> 100 µM	> 100	79.9	–	–	–	–	–	–	–	–	–
O=c1cccccc1[O-].O=c1cccccc1[O-].[O]=[U+2]=[O]	82	41.2	–	57.3	63.2	60.8 µM	68.5	56.4 µM	74.5	48	–	–	–	27.2	–	–	–	–	–
O=C(OCN1C(=O)C2C3C=CC(C2C1=O)C1C2C(=O)N(COC(=O)C4CCCN4)C(=O)C2C31)C1CCCN1 (configuration not stated)	> 95.3	> 100	–	> 100	> 100	> 100 µM	> 100	> 100 µM	> 100	> 83.4	–	–	–	–	–	–	–	–	–
CCCCCCCCC/C=C/C=C/C(=O)NCC(=O)NC1C(O)C(O)C(Nc2ncnc3nc[nH]c23)OC1C(O)CO (configuration not stated)	> 100	0.0163	1.21	1.71	0.913	0.00389 µM and 0.0337 µM	0.207	0.0105 µM and 0.0747 µM	0.00892	–	0.372	–	–	–	0.0002	–	–	–	0.0144
NCCSC(c1ccccc1)c1ccccc1	42.6	39.8	34.2	31.8	> 100	38.7 µM	30	67.2 µM	70.8	> 100	–	–	–	–	–	–	–	–	–
CCC(C)C1=C(OC(C)=O)[N+]2([O-])Oc3ccc(-c4c(OC(C)=O)c(OC(C)=O)c(-c5ccc(OC(C)=O)cc5)c(OC(C)=O)c4OC(C)=O)cc3OC2(C(C)CC)C(=O)N1OC(C)=O (configuration not stated)	29.3	> 50	> 50	> 50	> 50	> 50 µM	> 50	> 50 µM	> 50	> 50	–	–	–	–	–	–	–	–	–
O=C(/C=C/c1ccc(O)c(-c2cc(C(=O)/C=C/c3ccc(O)cc3)c(O)cc2O)c1)c1ccc(O)cc1O	> 50	> 50	> 50	> 50	> 50	24 µM	> 50	> 50 µM	48.3	> 50	–	–	–	–	–	–	–	–	–
Fc1ccc(C(OCCN2CCC3CCC(C2)N3C/C=C/c2ccco2)c2ccc(F)cc2)cc1 (configuration not stated)	20.4	15.7	25.9	21.5	24.8	13.3 µM	17.4	27.9 µM	30.3	25.3	–	–	–	–	–	–	–	–	–
Cc1ccccc1C(=O)N/N=C/c1ccc(Sc2nccn2C)c([N+](=O)[O-])c1	> 100	> 100	> 100	> 100	> 100	> 100 µM	> 100	> 100 µM	> 100	> 100	–	–	–	–	–	–	–	–	–
